Laboratory results taken from patent US5854015A, “Method of making pure 3R-3'R stereoisomer of zeaxanthin for human ingestion” (priority 1995, dated 1998).
Values belong to the compound of their own block, whether it stands above or below them.

Columns and labels:
[1] = of all known carotenoids; cited from earlier work
[2] = in vivo
Description: Birds in the C+ group are fed a standard commercial diet which contains several carotenoids; this diet also contains synthetic alpha-tocopherol (Vitamin E) as an additive.

[3] = macular degeneration; cited from earlier work
[4] = cited from earlier work
[5] = Pasteurization of cell culture by heating; format: physicochemical; settings: stabilizers added
Description: After the stabilizing compounds are added, a bacterial cell culture can be pasteurized by heating to 55° C. for 25 minutes.
After the stabilizing compounds are added, the cell culture is pasteurized by heating to 55° C. for 25 to 50 minutes.

[6] = Feeding of F. multivorum cell paste to birds or fish; format: in vivo; settings: cell paste fed directly
Description: Although this option has not yet been fully evaluated, it is possible that the Flavobacterium multivorum cells themselves, in intact form and possibly even in a viable state, may be suitable for direct ingestion by humans. A substantial number of human foods (including cheese, yogurt, beer, etc.) contain viable or killed-but-intact microbial cells, and there is no known pathogenicity associated with the F. multivorum cells isolated by Applied Food Biotechnology, Inc. They were isolated from a relatively cold artesian waterway, and since they are adapted to living in cold water, they cannot survive or reproduce well at temperatures inside the human body. […] When fed directly in the form of a cell paste to animals such as birds or fish, these cells appear to be well-suited as delivery vehicles for zeaxanthin.

[7] = tested on: chickens; settings: cited from earlier work
[8] = per-weight basis; cited from earlier work

Structure (SMILES): CC(C)=CCC/C(C)=C/C=C/C(C)=C/C=C/C(C)=C/C=C/C=C(C)/C=C/C=C(C)/C=C/C=C(\C)CCC=C(C)C [lycopene]
singlet oxygen quenching [1]: best singlet oxygen quencher of all known carotenoids

Structure (SMILES): Cc1c(C)c2c(c(C)c1O)CCC(C)(CCCC(C)CCCC(C)CCCC(C)C)O2 (stereo not drawn) [alpha-Tocopherol]
Concentration in retina [2]: 15.6 ng per mg retina | benefits in the retina [3]: very limited

Structure (SMILES): CC(C=CC=C(C)C=CC1=C(C)CCCC1(C)C)=CC=CC=C(C)C=CC=C(C)C=CC1C(C)=CC(O)CC1(C)C (stereo not drawn) [alpha-Cryptoxanthan]
Concentration in retina [2]: 1.4 ng per mg retina

Structure (SMILES): CC1=C(/C=C/C(C)=C/C=C/C(C)=C/C=C/C=C(C)/C=C/C=C(C)/C=C/C2=C(C)C(=O)CCC2(C)C)C(C)(C)CCC1=O [Canthaxanthin]
Concentration in retina [2]: 1.7 ng per mg retina | crystal formation in retinal tissue ([4]; in vivo): can cause crystal formation which can destroy retinal cells and tissue | deposition in human skin ([4]; in vivo): is deposited in human skin | displacement of lutein in retinal tissue ([4]; in vivo): can displace lutein | retinal toxicity ([4]; ingested): shown to cause retinal maculopathy

Structure (SMILES): Cc1c(O)cc2c(c1C)O[C@](C)(CCC[C@H](C)CCC[C@H](C)CCCC(C)C)CC2 [gamma-Tocopherol]
Concentration in retina [2]: 5.0 ng per mg retina

Structure (SMILES): CC1=C(/C=C/C(C)=C/C=C/C(C)=C/C=C/C=C(C)/C=C/C=C(C)/C=C/C2=C(C)C[C@@H](O)CC2(C)C)C(C)(C)C[C@H](O)C1 [zeaxanthin, 3,3'-dihydroxy-β-β-carotene]
Concentration in retina [2]: 4.7 ng per mg retina | damage to zeaxanthin on pasteurization ([5]; 55° C. for 25 to 50 minutes): without damaging the zeaxanthin | damage to zeaxanthin on pasteurization ([5]; 55° C. for 25 minutes): without damaging the zeaxanthin | absorption and tissue deposition after feeding [6]: absorbed into the bloodstream and deposited into various tissues at expected and appropriate tissue locations | coloration of chickens fed cells and their zeaxanthin pigment ([7]; cells ATCC 21081 and 21588, U.S. Pat. No. 3,891,504): caused suitable coloration | coloring potency relative to lutein ([7]; per-weight basis, skin and egg yolks): 2-3 times | effectiveness in imparting color relative to lutein [8]: several times more effective

More lines, main results first:

Detection of β-Carotene in retinas [2]: No β-Carotene was detected
Structure (SMILES): CC1=C(/C=C/C(C)=C/C=C/C(C)=C/C=C/C=C(C)/C=C/C=C(C)/C=C/C2=C(C)CCCC2(C)C)C(C)(C)CCC1 [β-Carotene]
benefits in the retina [3]: very limited

Concentration in retina [2]: 5.8 ng per mg retina
Structure (SMILES): CC1=C(/C=C/C(C)=C/C=C/C(C)=C/CO)C(C)(C)CCC1 [Retinol (Vit. A)]
benefits in the retina [3]: very limited

Concentration in retina [2]: 1.0 ng per mg retina
Structure (SMILES): CC1=C[C@H](O)CC(C)(C)[C@H]1/C=C/C(C)=C/C=C/C(C)=C/C=C/C=C(C)/C=C/C=C(C)/C=C/C1=C(C)C[C@@H](O)CC1(C)C [Lutein]
